Measurements reported in patent US20020155172A1, “Methods and compounds for decreasing cell toxicity or death” (priority 2000, published 2002).
Structures can show the parent of a compound that is named as a salt. Where two headings read alike, the source gives them in different places. Peptide text beside a SMILES is read from it. * marks the point of attachment. Cbz = O=C(OCc1ccccc1)*

How the values were obtained:
[1] = tested on: HeLa cells co-transfected with a luciferase construct together with Q79-GFP; test: Protein synthesis by luciferase activity in Q79 expressing HeLa cells; assay type: cell-based
[2] = tested on: HeLa cells transfected with a Q79-GFP construct; test: Polyglutamine-induced cell death in HeLa cells; assay type: cell-based; conditions: Q79-GFP, compound added six hours after transfection, 1 nM to 100 μM (FIG. 4A: 100 μM), seventy-two hours post-transfection
Protocol: FIG. 4A is two graphs showing the effect of Congo red, tetracyclines, and sulfated polyanions on polyglutamine-induced cell death in, each graph representing a separate experiment. HeLa cells transfected with a Q79-GFP construct were treated with 100 μM of minocycline (mino), Chrysamine G (CG), Rolitetracycline (Ro), iota carrageenan (iota), dextran 500 (dextran), or Congo red (CR), six hours after transfection. The amount of cell death was determined 48 hours after transfection by morphological criteria as previously described (Sanchez et al., supra).
In a cell expressing Q79-GFP polypeptides, polyglutamine aggregates are formed and the cell dies by apoptosis (Sanchez, supra). Cell viability was determined by morphological criteria characteristic of apoptosis, including cell blebbing, shrinking. Total cell lysates and tissue homogenates were obtained using Buffer A: 1% triton in PBS, containing 10 μg/ml DNAse and protease inhibitors; leupeptin 20 μg/ml, aprotinin 20 u/ml, and PMSF 100 mM. The proteins were separated by 12% SDS/PAGE and transferred to PVDF Immobilon membrane (Millipore, Inc). Antibodies used included rabbit polyclonal antibodies; EM48 (Li et al., Mol. Neurobiol. 20:111-124, 2000) anti-heat shock proteins 40 and 70 (Stressgen, Co.), and rat monoclonal anti-caspase-8 antibody.
These effects were determined by visual inspection of GFP-positive cells under an inverted fluorescence microscope. In addition, the occurrence of apoptosis of these transfected cell samples was confirmed by staining the cells with trypan blue, propidium iodide, or Hoescht 33342 to examine the cellular or nuclear morphology.
Compounds that disrupt other types of aggregates, for example, amyloid fibril aggregates were tested for their ability to disrupt pre-formed polyglutamine aggregates. HeLa Cells were transfected with a Q79-GFP construct. Six hours later, Iota-carrageenan, dextran, minocycline, rolitetracycline, and Chrysamine G (1 nM to 100 μM) were each incubated with the cells. Seventy-two hours post-transfection, the cells were evaluated for the occurrence of cell death, by visual inspection under an inverted fluorescence microscope.

Q79-GFP aggregates = test: Decrease of pre-formed Q79-GFP aggregates in vitro; assay type: biochemical; conditions: 100 μM each; visually examined
Protocol: Q79-GFP was expressed and purified from bacteria using standard molecular biology techniques. These fusion proteins form aggregates in vitro which can be viewed under an inverted fluorescence microscope. The Q79-GFP aggregates were administered Congo red (1 nM to 100 μM) and the ability of Congo red to decrease the aggregate was visually assessed.
This assay was also carried out on Q79-GFP aggregates that were administered compounds known to disrupt other types of aggregates, for example, beta-amyloid fibril aggregates. The Q79-GFP aggregates were administered Iota-carrageenan, dextran, minocycline, rolitetracycline, or Chrysamine G Congo red (100 μM each), and visually examined for the effect of each compound on disruption of the aggregate, as well as the density and size of the aggregates.

GST-Q81 beads = test: Chemical absorption assay, Q81; assay type: binding; conditions: 25 μM of each (FIG. 6B)
Protocol: FIG. 6B is a graph of the percent of binding of various compounds to amyloid-like Q81 aggregates measured using a chemical absorption assay. The anti-amyloid compounds minocycline, Chrysamine G, Rolitetracycline, iota carrageenan, dextran 500 (dextran), or Congo red (25 μM of each) were pre-absorbed with Q81 GST recombinant protein and the percentage absorbance of the compound remaining in the supernatant after absorption with GST-Q81 beads is plotted on the y-axis.
To determine if Congo red and its derivatives directly bind to expanded polyglutamine aggregates, we designed a chemical absorption assay. This assay measures the remaining Congo red in the supernatant after incubating the supernatant with GST-tagged polyglutamine beads, and removing the GST-polyglutamine beads by centrifugation. This assay was carried out as follows. Recombinant protein GST-Q19, GST-Q62, and GST-Q81 (containing 19, 62, and 81 polyglutamines, respectively) was purified from E. coli by glutathione beads. After several washes with PBS containing protease inhibitors, the beads were allowed to settle to the bottom of the tube at 24° C. for 10 minutes. The polyglutamine-bound beads were aliquoted and diluted with two volumes of 10 μg/ml of Congo red in PBS. The beads were mixed and centrifuged at 15,000 rpm for 2 minutes and the supernatant was removed and diluted 1:100. The percentage absorbance of the compound remaining in the supernatant after absorption with the GST-polyQ beads was then detected. In addition, Congo red- or PBS-only treated polyglutamine polypeptide bead pellets were washed three times with 100 volumes of PBS and then the protein was separated by 12% polyacrylamide gels and immunoblotted as mentioned above. Some blots were used for immunostaining with anti-polyglutamine antibody (EM48). Other blots were left unstained to visualize the red color of Congo red that entered the gel along with the polyglutamine protein.
Binding of the above-identified compounds to amyloid-like Q81 aggregates was also assessed by a chemical absorption assay. The compounds indicated in FIG. 19 (25 μM of each) were pre-absorbed with a Q81 GST recombinant protein and the percentage absorbance of the compound remaining in the supernatant after absorption with GST-Q81 beads was then detected.

cells; primary neurons = test: Compound toxicity in cells; assay type: cell-based
[3] = tested on: non-transfected HeLa cells; test: Total cellular protein degradation; assay type: cell-based; conditions: Congo red 100 μM, ZVAD 100 μM, MG132 10 μM; H3-tyrosine release, 0 to 180 minutes
Protocol: FIG. 8C is a graph of the effect of effect of Congo red, ZVAD, or the proteosome inhibitor MG132 on total cellular protein degradation in non-transfected HeLa cells.
To rule out the possibility that Congo red may have an effect on protein degradation in general, we tested the effect of Congo red on proteosome degradation. Rates of total cellular protein degradation experiments, from cells seeded in 12 well dishes at 2×10^4, treated with Congo red (100 μM), ZVAD (100 μM), or the proteosome inhibitor MG132 (10 μM) and labeled with 5 μCi/ml of H^3-tyrosine for 1 hour. One hundred microliter culture medium aliquots were collected at 0, 30, 60, 90, 120, and 180 minute time points, and the levels of H^3-tyrosine were determined using an LS6000 scintillation counter (Beckman, Co).

[4] = Q79 expressing HeLa cells, various concentrations

With N[C@@H]1CONC1=O [D-cycloserine] the “protection against inhibition of protein synthesis (luciferase activity)” value (shortened to “protection against inhibition”) [1, 4] was “found to protect against inhibition of protein synthesis”.

In the case of R-(−)-deprenyl hydrochloride, the “protection against inhibition” value ([1]; […], various concentrations) is reported as “found to protect against inhibition of protein synthesis”.

dextran was tested, and the “Polyglutamine-induced Cell Death” value [2] was “+++ (Each + indicates approximately 20% cell death.)”, the “dissolution or disruption of pre-formed expanded polyglutamine repeat aggregates” value (“dissolution or disruption” for short) (Q79-GFP aggregates) was “detected only after Congo red addition and daunomycin addition” and the “binding to 81-repeat polyglutamine polypeptide” value (“binding” below) (GST-Q81 beads) was “binds to expanded polyglutamines”.

With O=C(CCCN1CCC(O)(c2ccc(Cl)cc2)CC1)c1ccc(F)cc1 [haloperidol] the “protection against inhibition” value [1, 4] was “found to protect against inhibition of protein synthesis”.

C[C@]12CCC(=O)C=C1CC[C@@H]1[C@@H]2[C@@H](O)C[C@@]2(C)[C@H]1CC[C@]2(O)C(=O)CO [hydrocortisone] was tested, and the “protection against inhibition” value [1, 4] was “found to protect against inhibition of protein synthesis”.

O=C(O)c1cc(/N=N/c2ccc(-c3ccc(/N=N/c4ccc(O)c(C(=O)O)c4)cc3)cc2)ccc1O [Chrysamine G] was tested, and the “Polyglutamine-induced Cell Death” value [2] was “+++ (Each + indicates approximately 20% cell death.)”, the “dissolution or disruption” value (Q79-GFP aggregates) was “detected only after Congo red addition and daunomycin addition” and the “binding” value (GST-Q81 beads) was “binds to expanded polyglutamines”.

CN(C)[C@@H]1C(O)=C(C(=O)NCN2CCCC2)C(=O)[C@@]2(O)C(O)=C3C(=O)c4c(O)cccc4[C@@](C)(O)[C@H]3C[C@@H]12 [rolitetracycline] was tested, and the “Polyglutamine-induced Cell Death” value [2] was “+++ (Each + indicates approximately 20% cell death.)”.

For COc1cccc2c1C(=O)c1c(O)c3c(c(O)c1C2=O)C[C@@](O)(C(C)=O)C[C@@H]3O[C@H]1C[C@H](N)[C@H](O)[C@H](C)O1 [daunomycin, reference compound], the “dissolution or disruption” value (Q79-GFP aggregates) was “dissolution or disruption of pre-formed expanded polyglutamine repeat aggregates were detected” and the “compound toxicity in cells” value (cells; primary neurons) was “highly toxic to cells”.

In the case of Nc1ccc(/N=N/c2ccccc2)c(N)n1 [phenazopyridine], the “protection against inhibition” value [1, 4] is reported as “found to protect against inhibition of protein synthesis”.

For C[C@H]1C[C@@H]2[C@H]([C@@H](O)C[C@@]3(C)[C@H]2CC[C@]3(O)C(=O)COC(=O)CCC(=O)O)[C@@]2(C)C=CC(=O)C=C12 [6a-methylprednisolone 21-hemisuccinate], the “protection against inhibition” value [1, 4] was “found to protect against inhibition of protein synthesis”.

For C[C@H]1O[C@@H](O[C@H]2[C@@H](O)C[C@H](O[C@H]3[C@@H](O)C[C@H](O[C@H]4CC[C@@]5(C)[C@H](CC[C@@H]6[C@@H]5C[C@@H](O)[C@]5(C)[C@@H](C7=CC(=O)OC7)CC[C@]65O)C4)O[C@@H]3C)O[C@@H]2C)C[C@H](O)[C@@H]1O [digoxin], the “protection against inhibition” value ([1]; […], various concentrations) was “found to protect against inhibition of protein synthesis”.

For iota-carrageenan, the “Polyglutamine-induced Cell Death” value [2] was “+++ (Each + indicates approximately 20% cell death.)”, the “dissolution or disruption” value (Q79-GFP aggregates) was “detected only after Congo red addition and daunomycin addition” and the “binding” value (GST-Q81 beads) was “binds to expanded polyglutamines”.

For Cn1cnc([N+](=O)[O-])c1Sc1ncnc2nc[nH]c12 [azathioprine], the “protection against inhibition” value [1, 4] was “found to protect against inhibition of protein synthesis”.

In the case of neostigmine methyl ether, the “protection against inhibition” value ([1]; […], various concentrations) is reported as “found to protect against inhibition of protein synthesis”.

With CC(C)C[C@@H](C=O)NC(=O)[C@H](CC(C)C)NC(=O)[C@H](CC(C)C)NC(=O)OCc1ccccc1 [MG132] (Cbz-Leu-Leu-Leu-aldehyde) the general protein degradation [3] was “inhibited”.

In the case of [O]=[Mg] [magnesium oxide], the “protection against inhibition” value ([1]; […], various concentrations) is reported as “found to protect against inhibition of protein synthesis”.

CCCCCCCCC(=O)NCc1ccc(O)c(OC)c1 [N-vanillylnonanmide] was tested, and the “protection against inhibition” value [1] was “found to protect against inhibition of protein synthesis”.

With COc1ccc2cc(CCC(C)=O)ccc2c1 [nabumetone] the “protection against inhibition” value [1, 4] was “found to protect against inhibition of protein synthesis”.

With CCC1(c2ccccc2)C(=O)NCNC1=O [primidone] the “protection against inhibition” value [1, 4] was “found to protect against inhibition of protein synthesis”.

In the case of CC(C)C[C@H]1C(=O)N2CCC[C@H]2[C@]2(O)O[C@](NC(=O)[C@@H]3C=C4c5cccc6[nH]c(Br)c(c56)C[C@H]4N(C)C3)(C(C)C)C(=O)N12 [bromocriptine mesylate], the “protection against inhibition” value ([1]; […], various concentrations) is reported as “found to protect against inhibition of protein synthesis”.

In the case of CN(C)c1ccc(O)c2c1C[C@H]1C[C@H]3[C@H](N(C)C)C(O)=C(C(N)=O)C(=O)[C@@]3(O)C(O)=C1C2=O [minocycline], the “Polyglutamine-induced Cell Death” value [2] is reported as “+++ (Each + indicates approximately 20% cell death.)”.
